Here are results for 65 compounds from a melting point compilation (Tetko et al.; mined from patent text by program, amines drawn as free bases though some values may be those of a salt).

Where only a bound is given, the exact number is not on record here.

As a reminder, the melting point is the temperature of the solid-liquid transition.

Regarding `Cc1c(CBr)cccc1C(F)(F)C(F)(F)c1ccccc1`, the melting point was 67 to 71 °C.

With `CCCc1nc2c(N)nc3cccnc3c2n1CC1(O)CCOC1` (stereo not given), the melting point is 171 to 173 °C.

Compound `CCOC(=O)c1nc2sc([N+](=O)[O-])c(C)c2c(=O)[nH]1` returned a melting point of 229 to 230 °C.

Compound `COc1cc2c(cc1OC(C)=O)CCC1C2CCC2(C)C1C=CC21OCCO1` (stereo not given) yielded a melting point of 161 to 162 °C.

`NC=C1C(=O)N(c2cccc(Cl)c2)c2ccccc21` registered a melting point of 141 to 143 °C.

`COc1cc(N)c(Cl)cc1C(=O)NN1CCN2CCCCC2C1` (stereo not given): the melting point lay within 118 to 119 °C.

Turning to `CC(C)(C)C(=O)c1ccc(C(C)(C)C(=O)O)cc1`, the melting point was in the range of 128 to 130 °C.

Compound `CC1CC2C3CCC4=CC(=O)C=CC4(C)C3(F)C(O)CC2(C)C1(O)C(=O)COC(=O)c1cccnc1` (stereo not given) displayed a melting point of 262 to 265 °C.

For the compound `C[C@@H]1S[C@@H](C(=O)O)Cc2cc3c(cc2C1=O)OCO3`, the melting point was 192 to 193 °C.

In turn, `Cc1c(N2CCC(C3(N)CCC3)C2)c(F)cc2c(=O)c(C(=O)O)cn([C@@H]3C[C@@H]3F)c12` (stereo not given in full) registered a melting point of 140 to 143 °C.

`C=CCN(C(=O)OC(C)(C)C)c1cc(OC)c(-c2ccc(C[C@H](NC(=O)c3c(Cl)cccc3Cl)C(=O)O)cc2)c(OC)c1` gave a melting point of 138 to 139 °C.

The compound `CC(C(=O)O)n1c(-c2ccc(Cl)cc2)nc2cccnc21` (stereo not given) registered a melting point of 226 to 229 °C.

For the compound `Cc1c(CCl)sc2cc(Br)ccc12`, the melting point was in the range of 92 to 93 °C.

Regarding `O=[N+]([O-])c1cn2c(n1)OC[C@@H](OCc1ccc(Cl)nc1)C2`, the melting point lay in the range of 191 to 193 °C.

Regarding `CCOC(=O)c1nc2sc3c(c2c(=O)[nH]1)CCCC3`, the melting point lay within 207 to 209 °C.

With `COc1ccc(Cc2ccc(NC3=NCCN3)cc2OC)cc1`, the melting point was 127 to 128 °C.

Consider `Cn1cc(-c2cc3cccnc3[nH]2)c2cc(-c3nn[nH]n3)ccc21`, for which the melting point was 303 °C.

For the compound `CSc1c(CC(=O)O)cc(C)c2c3ccccc3n(Cc3ccccc3)c12`, the melting point is 219 to 220 °C.

In the case of `CC(C)N(Cc1ccc2cc(NC(=O)N3CCC(c4ccc(Cl)cc4)CC3)ccc2n1)C(C)C`, the melting point fell in the range of 201 to 203 °C.

The compound `CC(=O)NC(=O)NCC(=O)N1CC1C#N` (stereo not given) yielded a melting point of 118 to 122 °C.

`CO/N=C(/C(N)=O)c1ccccc1COC(C)=O` returned a melting point of 121 to 123 °C.

On to `Cc1cc(-c2cccc3c2C(=O)OC(C)(C)O3)on1`, for which the melting point is 74 °C.

In turn, `O=C1C(Br)CCN1c1cccc(C(F)(F)F)c1` (stereo not given) had a melting point of 79 to 83 °C.

Take `N[C@@H](Cc1ccccc1)C(=O)NCC(=O)Nc1ccc([N+](=O)[O-])cc1C(=O)c1ccccc1`: the melting point fell in the range of 144 to 146 °C.

For the compound `CCCCCCCCCCOc1cc(OCCCOc2ccc(OCc3ccccc3)cc2)cc(C(=O)OC)c1`, the melting point lay in the range of 68 to 70 °C.

The compound `Clc1ccc2ncn3cnnc3c2c1` came in with a melting point of 179 to 182 °C.

As to `O=C(c1ccccc1)n1c(=O)c(F)cn(C2CC(O)C(CO)O2)c1=O` (stereo not given), the melting point lay within 126 to 127 °C.

`CCCCn1c2c(c3ccccc3c1=O)C(=O)c1cc3c(cc1-2)OCO3`: the melting point lay within 200 to 201 °C.

As to `CNC(=O)c1cc(N2CCN(C)CC2)ncc1Br`, the melting point was 122 to 125 °C.

`Cc1ccc(CN2Cc3cncn3C(c3ccc(C#N)cc3)C2=O)cc1` (stereo not given) had a melting point of 168 to 170 °C.

As to `CCOC(=O)c1oc(-c2ccc(Cl)cc2)nc1C`, the melting point lay in the range of 80 to 81 °C.

On to `CCOC(=O)c1c(-c2cc(C)c(O)c(C)c2)c(C)n2c1-c1cc(OC)c(OC)cc1C(C)(C)C2`, for which the melting point was in the range of 200 to 202 °C.

With `Cn1cc(-c2cccc(N3Cc4cc(C(C)(C)C)ccc4C3=O)c2CO)nc(Nc2cnn(C3CC3)c2)c1=O`, the melting point was in the range of 218 to 219 °C.

`O=C(CC(=O)N1CCOCC1)c1ccc2ccccc2c1O` showed a melting point of 128 to 130 °C.

`O=C1CCCCc2ccccc21` registered a melting point of 79 to 84 °C.

`Nc1cc(Cl)nc(C(=O)O)c1C(F)F` showed a melting point of 149 to 151 °C.

The compound `COc1ccc(C2OC(=O)NC2C)cc1OC` (stereo not given) gave a melting point of 98 to 99 °C.

Take `CN1CCN(C(=O)CC2(C)OCCc3c2[nH]c2ccccc32)CC1` (stereo not given): the melting point was in the range of 80 to 84 °C.

For the compound `COc1ccc(CCNCC(O)c2ccccc2)cc1Cl` (stereo not given), the melting point is 95 to 96 °C.

With `CSc1ccc(C(=O)Cc2ccc(F)cc2)cc1`, the melting point was 139 to 140 °C.

Compound `CC(=O)OCC(C)(C)c1ccc(S(=O)(=O)Nc2ncnc(Cl)c2-c2ccc(C)cc2)cc1` had a melting point of 188 to 189 °C.

`Nc1ccc2ccccc2c1-c1c(O)ccc2ccccc12`: the melting point fell in the range of 236 to 237 °C.

In the case of `O=c1ccn(CCO)c(C(O)c2ccccc2F)c1OCc1ccccc1` (stereo not given), the melting point was in the range of 164 to 166 °C.

`Cn1cnc(COc2nn3c(-c4ccccc4)nnc3cc2-c2ccco2)n1` had a melting point of 257 to 259 °C.

Compound `CN1CCN(c2ccc([N+](=O)[O-])cc2)C1=O` displayed a melting point of 207 to 208 °C.

`CCNCCCOc1ccc(-c2ccc(C(=O)OCC)cc2)cc1-c1ccc2c(c1)C(C)(C)CCC2(C)C`: the melting point is 148 °C.

With `CC12CCC3c4ccc(O)cc4CC(Sc4ccc(Br)cc4)C3C1CCC2O` (stereo not given), the melting point was in the range of 165 to 166 °C.

`CN1CSC(=Cc2ccc(O)c(C(C)(C)C)c2)C1=O` had a melting point greater than 230 °C.

`CNC(=O)c1cc2ccc3c(c2c(-c2ccc4c(c2)OCO4)c1CO)OCO3` came in with a melting point of 233 to 235 °C.

In the case of `Nc1cccc2cnc(Cl)cc12`, the melting point is 176 to 177 °C.

The compound `CCCCOCCOc1ccc(-c2ccc3c(c2)C=C(C(=O)Nc2ccc(SCc4ncon4)cc2)CCN3CC(C)C)cc1` yielded a melting point of 112 to 115 °C.

Compound `O=C(O)c1cc(OCCCOc2ccccc2-c2ccccc2)cc(OCCCOc2ccccc2-c2ccccc2)c1` displayed a melting point of 110 to 113 °C.

`Cc1cccc2[nH]c(=O)n3ccnc3c12`: the melting point fell in the range of 308 to 310 °C.

In turn, `FC(F)(F)c1cc(Cl)c(-n2nccc2Cl)c(Cl)c1` returned a melting point of 70 to 72 °C.

For `CNC(=O)c1cc(-c2ccc(OC)cc2)nn(Cc2ccc([N+](=O)[O-])cc2)c1=O`, the melting point is 199 °C.

`O=C(Nc1ccc(-n2nc(C(F)(F)F)cc2C2CC2)c(F)c1)c1c(F)cccc1F` had a melting point of 193 to 196 °C.

Take `CCN(CC)CCOCCC1CCCCN1C(=O)N1c2ccccc2NC(=O)c2csc(C)c21` (stereo not given): the melting point was in the range of 105 to 107 °C.

Take `COC(=O)NN=C1C(=O)Nc2ccc(C3=NNC(=O)SC3C)cc21` (stereo not given): the melting point turned out to be 201 °C.

Compound `Nc1nc2cc(F)ccc2s1` returned a melting point of 167 °C.

In turn, `CN=C1CCCc2scnc21` had a melting point of 233 to 235 °C.

The compound `CN(Cc1ccccc1)c1ncnc2c(N3CCOCC3)nc(N3CCC(N(C)C)CC3)nc12` had a melting point of 98 °C.

Compound `CC1(OC(=O)c2ncn3c2C2CCCN2C(=O)c2c(Cl)cccc2-3)CCCC1` (stereo not given) came in with a melting point of 190 to 191 °C.

Compound `CCC(=O)Nc1cccc(-c2ccc3nnc(C)n3n2)c1` showed a melting point of 265 to 268 °C.

In turn, `NC(=O)CNC(=O)c1cccc(-c2cccc3cc(Cc4cccc(C(F)(F)F)c4)sc23)c1` showed a melting point of 147 to 148 °C.

Take `OCc1cn(-c2ccc(F)c(Br)c2)cn1`: the melting point is 151 to 152 °C.
